Legend:
Test in all cases: fitness (endpoint OD595 vs no drug) (fraction); higher = more growth
S. pneumoniae D39V = system: S. pneumoniae D39V
Summary of the method: (§1)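 With the first reading as background, OD595 was measured every 30 min for 14 h in 384-well plates kept at 37 °C and inoculated at OD595 0.01. TSB, LB Lennox or CY was the medium. Fitness is the optical density at the transition into stationary phase divided by the robust mean of no-drug control wells, with a cap of 1.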

B. subtilis 168 = system: B. subtilis 168
Summary of the method: as §1

S. aureus Newman = system: S. aureus Newman
Summary of the method: as §1

S. aureus DSM 20231 = system: S. aureus DSM 20231
Summary of the method: as §1
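Further: OD595 on entry to stationary phase over no-drug wells; at most 1.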

C[C@H]1COc2c(N3CCN(C)CC3)c(F)cc3c(=O)c(C(=O)O)cn1c23 [Levofloxacin] + CO[C@@]12[C@H](COC(N)=O)C3=C(C(=O)C(C)=C(N)C3=O)N1C[C@@H]1N[C@@H]12 [Mitomycin C]
fitness, S. pneumoniae D39V
Settings | first compound 0.1725 µg/mL | first compound 0.2 µg/mL | first compound 0.345 µg/mL | first compound 0.4 µg/mL | first compound 0.69 µg/mL | first compound 0.8 µg/mL
partner 0.001075 µg/mL | – | 0.883 | – | 0.777 | – | 0.422
partner 0.002 µg/mL | 0.817 | – | 0.699 | – | 0.404 | –
partner 0.00215 µg/mL | – | 0.871 | – | 0.769 | – | 0.362
partner 0.004 µg/mL | 0.782 | – | 0.687 | – | 0.355 | –
partner 0.0043 µg/mL | – | 0.78 | – | 0.699 | – | 0.331
partner 0.008 µg/mL | 0.694 | – | 0.595 | – | 0.387 | –

CCCCCCCCCC(=O)N[C@@H](Cc1c[nH]c2ccccc12)C(=O)N[C@H](CC(N)=O)C(=O)N[C@@H](CC(=O)O)C(=O)N[C@@H]1C(=O)NCC(=O)N[C@@H](CCCN)C(=O)N[C@@H](CC(=O)O)C(=O)N[C@H](C)C(=O)N[C@@H](CC(=O)O)C(=O)NCC(=O)N[C@H](CO)C(=O)N[C@@H]([C@H](C)CC(=O)O)C(=O)N[C@@H](CC(=O)c2ccccc2N)C(=O)O[C@@H]1C [Daptomycin] + CC1=C(C(=O)O)N2C(=O)[C@@H](NC(=O)[C@H](N)c3ccccc3)[C@H]2SC1 [Cephalexin]
fitness
Settings | first compound 0.125 µg/mL | first compound 0.25 µg/mL | first compound 0.5 µg/mL | first compound 1 µg/mL | first compound 2 µg/mL | first compound 4 µg/mL
B. subtilis 168, partner 0.125 µg/mL | 0.897 | 0.879 | 0.872 | – | – | –
B. subtilis 168, partner 0.25 µg/mL | 0.888 | 0.892 | 0.879 | – | – | –
B. subtilis 168, partner 0.5 µg/mL | 0.879 | 0.957 | 0.835 | – | – | –
S. aureus Newman, partner 0.25 µg/mL | 0.956 | 0.962 | 0.984 | – | – | –
S. aureus Newman, partner 0.5 µg/mL | 0.992 | ≥ 1 | 0.996 | – | – | –
S. aureus Newman, partner 1 µg/mL | 0.991 | ≥ 1 | ≥ 1 | – | – | –
S. pneumoniae D39V, partner 1 µg/mL | – | – | – | 0.452 | 0.479 | 0.449
S. pneumoniae D39V, partner 2 µg/mL | – | – | – | 0.065 | 0.0675 | 0.0521
S. pneumoniae D39V, partner 4 µg/mL | – | – | – | 0.0361 | 0.0644 | 0.0719

fitness, one replicate
Settings | partner 0.125 µg/mL | partner 0.25 µg/mL | partner 0.5 µg/mL | partner 1 µg/mL
B. subtilis 168, first compound 0.25 µg/mL | – | – | – | 0.956
B. subtilis 168, first compound 0.5 µg/mL | – | – | – | 0.92
B. subtilis 168, first compound 1 µg/mL | – | 0.763 | 0.741 | 0.766
S. pneumoniae D39V, first compound 1 µg/mL | 0.903 | 0.898 | 0.896 | –
S. pneumoniae D39V, first compound 2 µg/mL | 0.922 | 0.857 | 0.891 | –
S. pneumoniae D39V, first compound 4 µg/mL | 0.977 | 0.878 | 0.887 | –

CC1(C)S[C@@H]2[C@H](NC(=O)[C@H](N)c3ccc(O)cc3)C(=O)N2[C@H]1C(=O)O [Amoxicillin] + CN(C)[C@@H]1C(O)=C(C(N)=O)C(=O)[C@@]2(O)C(O)=C3C(=O)c4c(O)ccc(Cl)c4[C@@](C)(O)[C@H]3C[C@@H]12 [Chlortetracycline]
fitness
Settings | partner 0.012 µg/mL | partner 0.024 µg/mL | partner 0.048 µg/mL | partner 0.375 µg/mL | partner 0.75 µg/mL | partner 1.5 µg/mL
S. aureus DSM 20231, first compound 0.0625 µg/mL | 0.421 | 0.169 | 0.0806 | – | – | –
S. aureus DSM 20231, first compound 0.125 µg/mL | 0.236 | 0.127 | 0.0782 | – | – | –
S. aureus DSM 20231, first compound 0.25 µg/mL | 0.0422 | 0.0199 | 0.0289 | – | – | –
S. aureus DSM 20231, first compound 0.5 µg/mL | 0.0037 | 0.0085 | 0.0227 | – | – | –
S. pneumoniae D39V, first compound 0.0008 µg/mL | – | – | – | 0.0877 | 0.0924 | 0.0983
S. pneumoniae D39V, first compound 0.0015 µg/mL | 0.845 | 0.854 | 0.887 | 0.119 | 0.0947 | 0.123
S. pneumoniae D39V, first compound 0.003 µg/mL | 0.808 | 0.804 | 0.85 | 0.0652 | 0.045 | 0.0882

one replicate
Settings | fitness
S. aureus DSM 20231, first compound 0.125 µg/mL, partner 0.006 µg/mL | 0.402
S. aureus DSM 20231, first compound 0.25 µg/mL, partner 0.006 µg/mL | 0.052
S. aureus DSM 20231, first compound 0.5 µg/mL, partner 0.006 µg/mL | 0
S. pneumoniae D39V, first compound 0.0008 µg/mL, partner 0.012 µg/mL | 0.904
S. pneumoniae D39V, first compound 0.0008 µg/mL, partner 0.024 µg/mL | 0.844
S. pneumoniae D39V, first compound 0.0008 µg/mL, partner 0.048 µg/mL | 0.853
S. pneumoniae D39V, first compound 0.006 µg/mL, partner 0.012 µg/mL | 0.482
S. pneumoniae D39V, first compound 0.006 µg/mL, partner 0.024 µg/mL | 0.45
S. pneumoniae D39V, first compound 0.006 µg/mL, partner 0.048 µg/mL | 0.378

From the supplement of paper PMC10627819
